Counter-ions that a name gives are not always drawn.
How the values were obtained:
5-HT1 receptor = experiment: Affinity to the 5-HT1 receptor (receptor binding, calf hippocampus membrane preparations, 3H-serotonin); conditions: calf hippocampus membranes, 3H-serotonin radioligand
Method: A.) Affinity to the 5-HT1 Receptor […] The values specified are data which were determined from receptor binding studies using calf hippocampus membrane preparations. 3H-serotonin was used for this purpose as radioactively labelled ligand.

[1] = tested on: contraction, caused by serotonin, of the arteria basilaris; experiment: Serotonin-agonistic/antagonistic action on the contraction, caused by serotonin, of the arteria basilaris of the dog; assay type: cell-based; conditions: for Effect antagonistic: suppression of serotonin-induced contraction after pre-treatment; for Effect agonistic: serotonin-mimetic contraction
Text: B.) Investigation of the serotonin-agonistic/antagonistic action
To this purpose, the action on the contraction, caused by serotonin, of the arteria basilaris of the dog is investigated [cf. Peroutka et al., Brain Research 259, 327 (1983)].
In this test model, an agonistic action can be detected by the serotonin-mimetic action (contraction).

| SMILES | Ki (5-HT1 receptor) [nM] | Effect antagonistic [1] | Effect agonistic [1] |
| --- | --- | --- | --- |
| CCCN(CCN(CC)CC)C1CCc2cccc(OC)c2C1 (stereo not drawn) [Example 20, 2-[N-(2-Diethylaminoethyl)-N-propyl]amino-8-methoxy-1,2,3,4-tetrahydronaphthalene dihydrochloride] | 11 | – | – |
| CCCN(CCNC(=O)OCC)C1CCc2cccc(OC)c2C1 (stereo not drawn) [Example 22, 2-[N-(2-Ethoxycarbonylamido-ethyl)-N-propyl]amino-8-methoxy-1,2,3,4-tetrahydronaphthalene hydrochloride] | 3 | 0 | – |
| CCCN(CC#N)C1CCc2cccc(OC)c2C1 (stereo not drawn) [Example 26, 2-(N-Cyanomethyl-N-propyl)amino-8-methoxy-1,2,3,4-tetrahydronaphthalene hydrochloride] | 2 | – | – |
| CCCN(CCCCN1C(=O)c2ccccc2S1(=O)=O)C1CCc2cccc(OC)c2C1.Cl (stereo not drawn) [Example 34, 2-{4-[N-(8-Methoxy-1,2,3,4-tetrahydro-2-naphthyl)-N-propyl-amino]butyl}-1,2-benzisothiazol-3(2H)-one 1,1-dioxide hydrochloride] | 1 | – | 0 |
| CCCN(CCO)C1CCc2cccc(OC)c2C1 (stereo not drawn) [Example 42, 2-[N-(2-Hydroxyethyl)-N-propyl]amino-8-methoxy-1,2,3,4-tetrahydronaphthalene] | 4 | – | – |
| CCCN(CCNS(=O)(=O)c1ccc(C)cc1)C1CCc2cccc(OC)c2C1 (stereo not drawn) [Example 45, 8-Methoxy-2-{N-[2-(4-toluene-sulphonamido)ethyl]-N-propyl}amino-1,2,3,4-tetrahydronaphthalene hydrochloride] | 1 | – | 0 |
| CCCN(CCN1CCCCS1(=O)=O)C1CCc2cccc(OC)c2C1 (stereo not drawn) [Example 58, 2-[2-N-Propyl-N-(8-methoxy-1,2,3,4-tetrahydro-2-naphthyl)-amino]ethyl-perhydro-1,2-thiazine 1,1-dioxide hydrochloride] | 4 | – | – |
| CCCN(CCCNC(=O)c1cccnc1)C1CCc2cccc(OC)c2C1 (stereo not drawn) [Example 62, dihydrochloride] | 4 | – | – |
| CCCN(CCC)C1CCc2cccc(O)c2C1 (stereo not drawn) [R^1 = H, R^2 = nC3 H7, R^3 = nC3 H7, reference compound] | – | 0 | – |
